Measurements taken from patent publication US9587225B2, “Low-molecular-compound for improving production, maintenance and proliferation of pluripotent stem cells, composition comprising the same, and culture method” (KOREA RESEARCH INSTITUTE OF BIOSCIENCE AND BIOTECHNOLOGY, priority 2012, dated 2017).

System: Mouse embryonic fibroblasts (OG2-MEF; hemizygous for the Oct4-GFP transgene)
Assay: Reprogramming of mouse embryonic fibroblasts, Oct4-GFP colony count
Assay type: cell-based
Conditions: OG2-MEF transfected with OSKM, after 15 days, compared to control group
Protocol: FIG. 1 is a process of screening mouse cell reprogramming factors using analog library screening of novel trans-3-indoleacrylic acid-based compounds. In order to screen low-molecular-weight compounds that promote the production of reprogrammed stem cells, mouse embryonic stem cells (OG2-MEF; hemizygous for the Oct4-GFP transgene) were transduced with reprogramming viruses (Oct4, Sox2, Klf4, and c-Myc). After 5 days, the cells were seeded on gelatin-coated plates and then cultured in mouse embryonic stem cell culture media containing each of low-molecular-weight compounds until colonies having a morphology similar to that of mouse embryonic stem cells were formed. After 15 days, the number of colonies expressing endogenous Oct4 GFP fluorescence was measured, and compounds that increased the efficiency of reprogramming compared to that of a control group were selected. […] Oct4 (O), Sox2 (S), Klf4 (K), and cMyc (M). FIG. 1B is a graph showing the increase in efficiency of reprogramming by RSC-133 and ID-558 among screened compounds. The values shown on the graph are mean values. The data are expressed as mean±SD (n=3).
The OSKM reprogramming factor virus was produced according to the method of Example 3. […] At 15 days after the transfection, the number of either colonies showing AP activity or colonies expressing endogenous Oct4 GFP fluorescence was measured to determine the efficiency of reprogramming.
To discover low-molecular-weight compounds that are involved in the reprogramming process, analog library screening of novel trans-3-indoleacrylic acid-based compounds was performed in mouse cells. Mouse embryonic fibroblasts (OG2-MEF: hemizygous for the Oct4-GFP transgene) were transfected with reprogramming viruses of Oct4, Sox2, Klf4 and c-Myc (OSKM), and after 5 days, the cells were seeded on gelatin-coated 12-well plates and incubated with mouse embryonic stem cell culture medium containing each of low-molecular-weight compounds until colonies having a morphology similar to that mouse stem cells were formed so that endogenous Oct4 GFP fluorescence was expressed (FIG. 1A). […]

CN(C)C(=O)c1ccc(O)c(NC(=O)C=Cc2c[nH]c3ccccc23)c1 [ID-558, 3-[3-(1H-indol-3-yl)-acrylamido]-4-hydroxy-N,N-dimethylbenzamide]
efficiency of reprogramming (number of colonies expressing endogenous Oct4 GFP fluorescence): showed the effect of increasing the efficiency of reprogramming
